Read-outs that look alike come from different tables or passages of the source.
Legend:
[1] = target: T1, DabiOBP5 (Dioryctria abietella, UniProt A0A8E6HS34); test: Competitive fluorescence binding assay with 1-NPN probe, recombinant DabiOBP5
T1 sequence (A0A8E6HS34 19-139): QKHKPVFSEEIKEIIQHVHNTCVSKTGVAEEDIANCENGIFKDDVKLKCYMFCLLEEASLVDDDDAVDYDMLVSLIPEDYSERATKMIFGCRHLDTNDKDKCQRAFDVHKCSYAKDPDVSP
Source text: In the binding assays, we selected 100 compounds derived from host/non-host plants and man-made insecticides widely used for the control of lepidopteran pests, representing 88 general odorants (21 esters, 21 alcohols, 14 aldehydes, 13 alkenes, seven ketones, 11 alkanes and one acid) and 12 insecticides. These compounds and N-phenyl-1-naphthylamine (1-NPN) were purchased from Aladdin and Sigma-Aldrich, with the highest available purity. […] The concentrations of the work solution for each ligand and 1-NPN were set at 1 mM.
In order to measure the binding properties of the DabiOBPs to the 100 ligands, competitive binding assays were performed on a RF5301PC fluorescence spectrophotometer (Shimadzu, Japan). The concentrations of DabiOBPs and the fluorescent probe 1-NPN were set at 2 μM. […] Accordingly, binding constants (K1-NPN) of the DabiOBPs and 1-NPN were calculated using GraphPad Prism 7 (GraphPad Software Inc., San Diego, CA). […] For the ligands replacing over a half of 1-NPN fluorescence (50%) at 20 μM, three replicates were performed. The excitation wavelength was set at 337 nm and the emission peaks were recorded at around 400 nm.

[2] = tested on: DabiOBP14; format: binding, Dioryctria abietella; conditions: for Ki: competitive displacement of 1-NPN, three replicates, mean ± SE, read-out: OBP14 Ki (dissociation constant)
Procedure: In the binding assays, we selected 100 compounds derived from host/non-host plants and man-made insecticides widely used for the control of lepidopteran pests, representing 88 general odorants (21 esters, 21 alcohols, 14 aldehydes, 13 alkenes, seven ketones, 11 alkanes and one acid) and 12 insecticides. These compounds and N-phenyl-1-naphthylamine (1-NPN) were purchased from Aladdin and Sigma-Aldrich, with the highest available purity. They were first diluted into 100 mM, using methanol (HPLC purity grade, ≥99.9%) as a stock solution. The concentrations of the work solution for each ligand and 1-NPN were set at 1 mM.
In order to measure the binding properties of the DabiOBPs to the 100 ligands, competitive binding assays were performed on a RF5301PC fluorescence spectrophotometer (Shimadzu, Japan). The concentrations of DabiOBPs and the fluorescent probe 1-NPN were set at 2 μM. The binding of DabiOBPs to 1-NPN in 20 mM Tris-HCl buffer (pH 7.4) was measured by adding final concentrations of 2–16 μM 1-NPN. Accordingly, binding constants (K1-NPN) of the DabiOBPs and 1-NPN were calculated using GraphPad Prism 7 (GraphPad Software Inc., San Diego, CA). The binding of the DabiOBPs to various ligands was conducted by adding different concentrations of ligands (2, 4, 6, 8, 12, 16 and 20 μM) into the DabiOBP5/1-NPN (each 2 μM) or DabiOBP14/1-NPN (each 2 μM) mixtures. For the ligands replacing over a half of 1-NPN fluorescence (50%) at 20 μM, three replicates were performed. The excitation wavelength was set at 337 nm and the emission peaks were recorded at around 400 nm. The dissociation constants (Ki) of the tested ligands to DabiOBPs were computed, using the equation: Ki = [IC50]/(1 + [1-NPN]/K1-NPN), where [1-NPN] was the free concentration of 1-NPN and IC50 was the concentration of ligands replacing 50% of 1-NPN fluorescence.

[3] = ligand at 20 μM; DabiOBP5/1-NPN each 2 μM; Tris-HCl pH 7.4; NB = no binding; read-out: OBP5 F.D. (%) fluorescence displacement percent
[4] = ligand at 20 μM, DabiOBP14/1-NPN each 2 μM, Tris-HCl pH 7.4, NB = no binding
[5] = ligand at 20 μM; DabiOBP5/1-NPN each 2 μM; Tris-HCl pH 7.4; NB = no binding
[6] = pH 7.4, read-out: OBP5 F.D. (%) fluorescence displacement percent
[7] = read-out: OBP5 Ki (dissociation constant); competitive displacement of 1-NPN; three replicates; mean ± SE

Compound	inhibition at 20 µM [1, 3]	OBP14 F.D. (%) fluorescence displacement percent [2, 4]	further results
O=Cc1ccccc1 [Benzaldehyde]	36.8%	38.35%	
O=C(OCc1ccccc1)c1ccccc1 [Benzyl benzoate]	47.8%	49.39%	
CCCCOC(C)=O [Butyl acetate]	31.6%		OBP14 F.D. (%) fluorescence displacement percent ([2]; pH 7.4): 0.16%
O=C(NC(=O)c1ccccc1Cl)Nc1ccc(Cl)cc1 [Chlorbenzuron]		47.43%	OBP5 F.D. (%) fluorescence displacement percent [1, 5]: 39.11%
CCOCn1c(-c2ccc(Cl)cc2)c(C#N)c(Br)c1C(F)(F)F [Chlorfenapyr]		60.84%	inhibition at 20 µM [1, 6]: 62%; Ki [1, 7]: 8.16 ± 0.55 µM; Ki ([1]; read-out: OBP5 Ki (dissociation constant); competitive displacement of 1-NPN; three replicates; mean ± SE; listed as chlorfenapyr): < 13 µM; Ki ([2]; listed as chlorfenapyr): < 13 µM; Ki [2]: 8.41 ± 0.42 µM
CCOP(=S)(OCC)Oc1nc(Cl)c(Cl)cc1Cl [Chlorpyrifos]		72.41%	inhibition at 20 µM [1, 6]: 66.1%; Ki [1, 7]: 5.92 ± 0.48 µM; Ki ([1]; read-out: OBP5 Ki (dissociation constant); competitive displacement of 1-NPN; three replicates; mean ± SE; listed as chlorpyrifos): < 13 µM; Ki ([2]; listed as chlorpyrifos): < 13 µM; Ki [2]: 4.62 ± 0.46 µM
CCCCCCCCCC=O [Decanal]	29.1%	21.35%	
CCCCCCCCCC [Decane]	20.2%		
CCCCCCCCCCOC(C)=O [Decyl acetate]	26.2%	15.15%	
CC1(C)[C@H](C(=O)O[C@H](C#N)c2cccc(Oc3ccccc3)c2)[C@@H]1C=C(Br)Br [Deltamethrin]	28.5%	38.21%	
O=C(NC(=O)c1c(F)cccc1F)Nc1ccc(Cl)cc1 [Diflubenzuron]	21.4%	30.33%	
CCCCCCCCCCCC=O [Dodecanal]	30.6%	3.43%	
CCCCCCCCCCCC [Dodecane]	31.9%	17.71%	
CCC/C=C/CO [E2-Hexen-1-ol]		18.64%	OBP5 F.D. (%) fluorescence displacement percent [1, 5]: 36.50%
CCC/C=C/C=O [E2-Hexenal]		32.34%	OBP5 F.D. (%) fluorescence displacement percent [1, 5]: 33.10%
CCOC(C)=O [Ethyl acetate]	19%	23.29%	
CCOC(=O)c1ccccc1 [Ethyl benzoate]	29.4%	30.02%	
CCCC(=O)OCC [Ethyl butyrate]	32%	31.72%	
CCCCCC(=O)OCC [Ethyl hexanoate]	24.2%	29.43%	
CCCCC/C=C\C=C\C(=O)OCC [Ethyl-(2E,4Z)-decadienoate]		68.07%	Ki ([1]; competitive displacement of 1-NPN; three replicates; mean ± SE; listed as ethyl-(2E,4Z)-decadienoate; read-out: OBP5 Ki (dissociation constant)): < 13 µM; Ki ([1]; competitive displacement of 1-NPN; three replicates; mean ± SE; read-out: OBP5 Ki (dissociation constant)): 5.67 ± 0.55 µM; OBP5 F.D. (%) fluorescence displacement percent [1, 5]: 69.83%; Ki ([2]; listed as ethyl-(2E,4Z)-decadienoate): < 13 µM; Ki [2]: 6.45 ± 0.43 µM
CC(C)=CCC/C(C)=C/CC/C(C)=C/CO [Farnesol]	36.3%	36.20%	
CCCCCCCCC [Nonane]	22.2%		
CCCCCCCC [Octane]	27.9%		
CCCCCCCCCCCCC [Tridecane]	5.52%		
C/C1=C\CC/C(C)=C/CC(C)(C)/C=C/C1 [α-Caryophyllene]			OBP5 F.D. (%) fluorescence displacement percent [1, 5]: 15.42%
C=C1CC/C=C(\C)CC[C@@H]2[C@@H]1CC2(C)C [β-Caryophyllene]	16.3%		

Reference: article PMC9781003, “Two Antenna-Enriched Odorant Binding Proteins in Dioryctria abietella Tuned to General Odorants and Insecticides” (Insects, 2022)
